This test has as its target T1, RORc ligand binding domain (Homo sapiens, UniProt P51449).
T1 construct: host or cells: E. coli
T1 sequence (P51449 269-508 limits assumed): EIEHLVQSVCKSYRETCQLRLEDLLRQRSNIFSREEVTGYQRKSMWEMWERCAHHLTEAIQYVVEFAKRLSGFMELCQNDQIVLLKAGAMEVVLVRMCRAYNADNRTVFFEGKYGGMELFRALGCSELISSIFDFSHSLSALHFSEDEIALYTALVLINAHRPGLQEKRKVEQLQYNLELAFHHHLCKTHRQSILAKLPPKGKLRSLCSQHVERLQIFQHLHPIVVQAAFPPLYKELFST
Put plainly: In Vitro RORc Ligand Binding Assay (25-[3H]hydroxycholesterol radioligand filtration).

Read-outs that look alike come from different tables or passages of the source.

As to `C[C@H]1CCC(c2ccccc2)S(=O)(=O)N1Cc1ccc(N2CCN3C(=O)OCC3C2)cc1F` (stereo partly drawn) [Example 400, 7-[3-Fluoro-4-((3S)-methyl-1,1-dioxo-6-phenyl-[1,2]thiazinan-2-ylmethyl)-phenyl]-hexahydro-oxazolo[3,4-a]pyrazin-3-one], the IC50 (as a rule, the concentration at which inhibition is half-maximal) (read-out: RORc IC50) stood at 95 nM.

Regarding `C[C@H]1CCC(c2ccccc2)S(=O)(=O)N1Cc1ccc(N2CCN3C(=O)CNC(=O)[C@@H]3C2)cc1F` (stereo partly drawn) [Example 401, (S)-8-[3-Fluoro-4-((3S)-methyl-1,1-dioxo-6-phenyl-[1,2]thiazinan-2-ylmethyl)-phenyl]-hexahydro-pyrazino[1,2-a]pyrazine-1,4-dione], the IC50 (read-out: RORc IC50) was found to be 2790 nM.

With `C[C@H]1CCC(c2ccccc2)S(=O)(=O)N1Cc1ccc(N2CCN3C(=O)CN(C)C(=O)[C@@H]3C2)cc1F` (stereo partly drawn) [Example 402, (S)-8-[3-Fluoro-4-((3S)-methyl-1,1-dioxo-6-phenyl-[1,2]thiazinan-2-ylmethyl)-phenyl]-2-methyl-hexahydro-pyrazino[1,2-a]pyrazine-1,4-dione], for the setting “read-out: RORc IC50”, the IC50 is 3540 nM.

For the compound `C[C@H]1CCC(c2ccccc2)S(=O)(=O)N1Cc1ccc(N2CCn3c(cnc3C(N)=O)C2)cc1F` (stereo partly drawn) [Example 403, 7-[3-Fluoro-4-((3S)-methyl-1,1-dioxo-6-phenyl-[1,2]thiazinan-2-ylmethyl)-phenyl]-5,6,7,8-tetrahydro-imidazo[1,5-a]pyrazine-3-carboxylic acid amide], under “read-out: RORc IC50”, the IC50 came to 346 nM.

Turning to `C[C@H]1CCC(c2ccccc2)S(=O)(=O)N1Cc1ccc(N2CCn3c(cnc3CO)C2)cc1F` (stereo partly drawn) [Example 404, {7-[3-Fluoro-4-((3S)-methyl-1,1-dioxo-6-phenyl-[1,2]thiazinan-2-ylmethyl)-phenyl]-5,6,7,8-tetrahydro-imidazo[1,5-a]pyrazin-3-yl}-methanol], for the setting “read-out: RORc IC50”, the IC50 was determined as 504 nM.

Consider `CONC(=O)[C@@H]1CN(c2ccc(CN3[C@@H](C)CCC(c4ccccc4)S3(=O)=O)c(F)c2)CCN1C(C)=O` (stereo partly drawn) [Example 407, (S)-1-Acetyl-4-[3-fluoro-4-((3S)-methyl-1,1-dioxo-6-phenyl-[1,2]thiazinan-2-ylmethyl)-phenyl]-piperazine-2-carboxylic acid methoxy-amide], for which the 50% inhibitory concentration (IC50) (read-out: RORc IC50) came to 148 nM.

Take `C[C@H]1CCC(c2ccccc2)S(=O)(=O)N1Cc1ccc(N2CCC(c3cn[nH]c3)CC2)cc1` (stereo partly drawn) [Example 414, (3S)-Methyl-6-phenyl-2-{4-[4-(1H-pyrazol-4-yl)-piperidin-1-yl]-benzyl}-[1,2]thiazinane 1,1-dioxide]: the half-inhibitory concentration (IC50) (read-out: RORc IC50) worked out at 6 nM.

Where the note is “RORc IC50”, `O=S1(=O)[C@@H](c2ccccc2)CCC2(CC2)N1Cc1ccc(N2CCC(n3cnnc3)CC2)cc1F` [Example 415, (R)-4-[2-Fluoro-4-(4-[1,2,4]triazol-4-yl-piperidin-1-yl)-benzyl]-6-phenyl-5-thia-4-aza-spiro[2.5]octane 5,5-dioxide] registered an IC50 of 37 nM.

As to `COC(=O)[C@H]1CN(C(C)=O)CCN1c1ccc(CN2[C@@H](C)CCC(c3ccccc3)S2(=O)=O)c(F)c1` (stereo partly drawn) [Example 416, (R)-4-Acetyl-1-[3-fluoro-4-((3S)-methyl-1,1-dioxo-6-phenyl-[1,2]thiazinan-2-ylmethyl)-phenyl]-piperazine-2-carboxylic acid methyl ester], the IC50 (read-out: RORc IC50) amounted to 368 nM.

For `C[C@H]1CCC(c2ccccc2)S(=O)(=O)N1Cc1ccc(N2CCN3C(=O)COCC3C2)cc1F` (stereo partly drawn) [Example 417, 8-[3-Fluoro-4-((3S)-methyl-1,1-dioxo-6-phenyl-[1,2]thiazinan-2-ylmethyl)-phenyl]-hexahydro-pyrazino[2,1-c][1,4]oxazin-4-one], the half-maximal inhibitory concentration (IC50) (read-out: RORc IC50) came to 231 nM.

As for `C[C@H]1CCC(c2ccccc2)S(=O)(=O)N1Cc1ccc(N2CCN3C(=O)CC[C@H]3C2)cc1F` (stereo partly drawn) [Example 419, (S)-2-[3-Fluoro-4-((3S)-methyl-1,1-dioxo-6-phenyl-[1,2]thiazinan-2-ylmethyl)-phenyl]-hexahydro-pyrrolo[1,2-a]pyrazin-6-one], under “read-out: RORc IC50”, the IC50 amounted to 32 nM.

`O=S1(=O)[C@H](c2ccccc2)CCC2(CC2)N1Cc1ccc(N2CCC(n3cnnc3)CC2)cc1F` [Example 421, (S)-4-[2-Fluoro-4-(4-[1,2,4]triazol-4-yl-piperidin-1-yl)-benzyl]-6-phenyl-5-thia-4-aza-spiro[2.5]octane 5,5-dioxide] came in with a half-inhibitory concentration (IC50) (RORc IC50) of 289 nM.

In the case of `C[C@H]1CCC(c2ccccc2)S(=O)(=O)N1Cc1ccc(N2CCC(n3cnnn3)CC2)cc1` (stereo partly drawn) [Example 422, (3S)-Methyl-6-phenyl-2-[4-(4-tetrazol-1-yl-piperidin-1-yl)-benzyl]-[1,2]thiazinane 1,1-dioxide], the IC50 (read-out: RORc IC50) was determined as 70 nM.

As to `C[C@H]1CCC(c2ccccc2)S(=O)(=O)N1Cc1ccc(N2CCC(n3ncnn3)CC2)cc1` (stereo partly drawn) [Example 423, (3S)-Methyl-6-phenyl-2-[4-(4-tetrazol-2-yl-piperidin-1-yl)-benzyl]-[1,2]thiazinane 1,1-dioxide], where the note is “read-out: RORc IC50”, the IC50 turned out to be 177 nM.

As to `C[C@H]1CCC(c2ccccc2)S(=O)(=O)N1Cc1ccc(N2CC3(CC(n4cnnc4)C3)C2)cc1F` (stereo partly drawn) [Example 424, 2-[3-Fluoro-4-((3S)-methyl-1,1-dioxo-6-phenyl-[1,2]thiazinan-2-ylmethyl)-phenyl]-6-[1,2,4]triazol-4-yl-2-aza-spiro[3.3]heptane], the IC50 (read-out: RORc IC50) amounted to 427 nM.

As to `C[C@H]1CCC(c2ccccc2)S(=O)(=O)N1Cc1ccc(N2CC3(CC(n4cnnc4)C3)C2)cc1F` (stereo partly drawn) [Example 425, 2-[3-Fluoro-4-((3S)-methyl-1,1-dioxo-6-phenyl-[1,2]thiazinan-2-ylmethyl)-phenyl]-6-[1,2,4]triazol-4-yl-2-aza-spiro[3.3]heptane], the IC50 (read-out: RORc IC50) stood at 1010 nM.

As for `COC(=O)C1(n2cnnc2)CCN(c2ccc(CN3[C@@H](C)CCC(c4ccccc4)S3(=O)=O)c(F)c2)CC1` (stereo partly drawn) [Example 426, 1-[3-Fluoro-4-((3S)-methyl-1,1-dioxo-6-phenyl-[1,2]thiazinan-2-ylmethyl)-phenyl]-4-[1,2,4]triazol-4-yl-piperidine-4-carboxylic acid methyl ester], the concentration for half-maximal inhibition (IC50) (read-out: RORc IC50) came to 453 nM.

For the compound `COC(=O)C1(n2cnnc2)CCN(c2ccc(CN3[C@@H](C)CCC(c4ccccc4)S3(=O)=O)c(F)c2)CC1` (stereo partly drawn) [Example 427, 1-[3-Fluoro-4-((3S)-methyl-1,1-dioxo-6-phenyl-[1,2]thiazinan-2-ylmethyl)-phenyl]-4-[1,2,4]triazol-4-yl-piperidine-4-carboxylic acid methyl ester], the IC50 (read-out: RORc IC50) worked out at 447 nM.

Take `C[C@H]1CCC(c2ccccc2)S(=O)(=O)N1Cc1ccc(N2CC(n3cnnc3)C2)cc1F` (stereo partly drawn) [Example 428, 2-[2-Fluoro-4-(3-[1,2,4]triazol-4-yl-azetidin-1-yl)-benzyl]-(3S)-methyl-6-phenyl-[1,2]thiazinane 1,1-dioxide]: the IC50 (read-out: RORc IC50) was found to be 88 nM.

As to `C[C@H]1CCC(c2ccccc2)S(=O)(=O)N1Cc1ccc(OCC2CCOC2)cc1` (stereo partly drawn) [Example 430, (3S)-Methyl-6-phenyl-2-[4-(tetrahydro-furan-3-ylmethoxy)-benzyl]-[1,2]thiazinane 1,1-dioxide], the IC50 (read-out: RORc IC50) was 559 nM.

Turning to `C[C@H]1CCC(c2ccccc2)S(=O)(=O)N1Cc1ccc(OCC2CC2)cc1` (stereo partly drawn) [Example 431, 2-(4-Cyclopropylmethoxy-benzyl)-(3S)-methyl-6-phenyl-[1,2]thiazinane 1,1-dioxide], where the note is “read-out: RORc IC50”, the IC50 was determined as 641 nM.

Take `C[C@H]1CCC(c2ccccc2)S(=O)(=O)N1Cc1ccc(OC2CCOCC2)cc1` (stereo partly drawn) [Example 432, (3S)-Methyl-6-phenyl-2-[4-(tetrahydro-pyran-4-yloxy)-benzyl]-[1,2]thiazinane 1,1-dioxide]: the concentration for half-maximal inhibition (IC50) (read-out: RORc IC50) was 1110 nM.

The record behind these values is US9115101B2 (Genentech, Inc., priority 2012, dated 2015).
